Several values for one entry are separate records, joined by “and”; a condition that tells them apart may be missing. Equal entries are not always repeated. Where two headings read alike, the source gives them in different places.
Key:
Format in all cases: cell-based, human
NB4 cells [1] = assay: Granulocytic differentiation, NBT reduction assay, alone or with ATRA; details: for % of NBT+ cells: three days; for effect on granulocytic differentiation / NBT positive cells, in words: alone or in combination with 20 nM ATRA
Experimental: The analysis of functional myeloid differentiation induced by compounds of the invention was accomplished by Nitro-Blu tetrazolium (NBT) reduction assay as described below. Cell suspension (approximately 10^5/mL) were incubated in the presence of 0.25 mg/mL NBT and 500 ng of PMA (Phorbol-12-Myristate 13-acetate) (Sigma) at 37° C. for 30 minutes. Granulocyte or monocyte differentiated cell were capable of reducing NBT to dark formazan precipitate (blu positive cells). NBT positive cells were counted on Burker chamber and expressed as percentage of total cell population.
(§1) • Compounds (II) in racemic form and enantiomers S or R. • Compounds (III) in racemic form and enantiomers S or R. • Compounds (II) with R1 and R2=hydrogen were tested for their capability to synergize with ATRA and for their ability to induce granulocyte differentiation in the human promyelocytic cell line NB4. ATRA at the final concentration of 1 μM is usually employed to induce granulocyte differentiation in NB4 cells.
(§2) NB4 cells were incubated for three days in presence of the compounds listed above, alone or in combination with ATRA. Granulocyte differentiation of leukemic cells was determined by (a) Nitro-Blu tetrazolium (NBT) reduction to dark formazan precipitate (blu positive cells) counting NBT positive cells on Burker chamber and (b) cytofluorimetric analysis of CD11b membrane expression (granulocyte marker, see example 32).

NB4 cells [2] = assay: Granulocytic differentiation, cytofluorimetric analysis of CD11b membrane expression, alone or with ATRA; details: for % of CD11b+ cells: three days
Experimental: Identification of markers of myeloid maturation was determined by flow cytometry by labelling cells with PE-conjugated antibody and FITC-conjugated antibody to CD11b (granulocyte marker) and CD14 (monocyte marker) respectively (Becton-Dickinson). Cell suspension aliquots (1×10^5 cells) were washed with cell wash buffer (Becton-Dickinson) and incubated with antibodies for 30 minutes in ice. After the incubation cells, resuspended in 0.3 mL of buffer containing Actinomycin D (Becton-Dickinson) to evaluate cell viability, were submitted to the cytofluorimetric analysis (FACScan, Becton-Dickinson). Cells incubated with appropriately labeled isotype controls were used to gate nonspecific fluorescence signal.
as §1, §2

acetylated H3 histone = assay: Histone deacetylase inhibition: western blot for acetylated histone H3 in cells incubated 6 hours with drug; details: for Acetyl-H3 densitometric value: 6 hours, untreated = 1; for H3 histone acetylating activity, in words / HDAC inhibitory / acetylating activity, in words (histone not specified): summary in description
Experimental: (§3) The new described compounds were tested for their ability to inhibit the histone deacetylase activity by western blot for the acetylated isoforms of histone H3 and H4 and also to induce growth arrest in cancer cells by activating apoptosis and/or cell differentiation. Initially, biological activities of newly synthesized HDACi were assessed by using the human acute promyelocytic leukemia cell line NB4, as the experimental model. Cells were maintained in RPMI (Bio-Whittaker Europe, Verviers, Belgio) supplemented with 10% of fetal calf serum (FCS, Boehringer Mannheim, Germania) and 2 mM glutamine (Merck, Darmstadt, Germania) at 37° C. in a humidified atmosphere of 5% CO2. Cells were counted in a Burker chamber and cells viability was assessed by the trypan blu exclusion test.
(§4) Cells, obtained as described above, were harvested in sterile plates (Falcon, Becton Dickinson, Franklin Lakes, N.J.) at density of 6×10^5/mL, and incubated for 6 hours with increasing drug concentration of single compounds. Then, the cells were lysated with RIPA buffer (50 mM Tris-HCl pH 7.4, 150 mM NaCl, 1% Nonidet P-40, 1 mM EDTA plus protease inhibitor cocktail (Protease Inhibitor Cocktail Set III, n° cat. 539134, Calbiochem, Merck, Darmstadt, Germany) and sonicated (Labsonic 1510) twice for 15s pulses at 1-2 Watts in ice. Protein concentration of cell extracts was determined according to the bicinchoninic acid colorimetric method (BCA, Pierce, Rockford, USA) by using serum bovine albumin as the standard (BSA, Sigma, Steinheim, Germania). Equal amounts of protein (20-40 μg/20-30 μL/well) were separated on NuPAGE Bis-Tris 12% gel (Novex, Invitrogen, Carlsbad, Calif.) 10% and transferred to nitrocellulose membranes (Pro-Bind, pore diameter=0.45 μm; Amersham Pharmacia). Then membranes, incubated in phosphate buffer saline (PBS) with 6% defatted dry milk as blocking solution to saturate unspecific binding sites, were probed overnight at 4° C. with primary antibodies (1;1000 dilution in PBS) raised against acetylated H4 a H3 histone isoforms (Upstate Technologies, Lake Placid, N.Y., USA). […] The experiment was performed with the compound (II) S form, where R1 and R2 can be independently a methyl group or hydrogen.

acetylated H4 histone = assay: Histone deacetylase inhibition: western blot for acetylated histone H4 in cells incubated 6 hours with drug; details: for Acetyl-H4 densitometric value: 6 hours, untreated = 0; for H4 histone acetylating activity, in words: summary in description
Experimental: as §3, §4

NB4 cells [3] = assay: Cytostatic and apoptotic activity, Annexin-V-FLUOS/propidium iodide flow cytometry, 48 hours; details: for IC50: 48 hours, graphic extrapolation of Annexin-V results, viable cells over control, read-out: IC50 (drug concentration reducing cell density or viability by 50%); for apoptotic activity, in words: leukemic cells, summary in description
Experimental: as §3
Cells, were initially harvested at 4×10^5/mL (3 mL/well) cell density 24 well plate and incubated for 48 hours with increasing drug concentration. All compounds were solubilized in DMSO so that the final concentration of vehicle in culture was lower than 0.1%. At the end of treatment cell viability and apoptosis were evaluated by cytofluorimetric analysis using Anexin-V-Fluos staining (Annexin-V-FLUOS Staining Kit, Roche Molecular Biochemicals, Mannheim, Germany).
Necrotic cells, which are also Annexin-V positive, were identified by using Propidium iodide fluorochrome, that is capable of penetrating cell membranes of dying or dead cells and binding DNA.
Briefly, aliquots of cell suspensions (approximately 10^5 cells) washed in buffer PBS, were resuspended in 5 μl of binding buffer containing annexin V-fluorescein isothiocyanate (FITC) and propidium iodide; incubation was carried out for 15 minutes at room temperature, and cells were then analyzed by flow cytometry (FACScan Becton-Dickinson, San Jose, Calif.).
The IC50 values (i.e. the drug concentration necessary to reduce cell density or viability by 50% as compared to untreated control cultures) obtained by graphic extrapolation of the Anexin-V results and expressed as percentage of viable cells over control were reported In Table 2.
Data represent the percentage of viable cells as the function of drug concentration.

CC1=C(/C=C/C(C)=C/C=C/C(C)=C/C(=O)O)C(C)(C)CCC1 [ATRA, all-trans-retinoc acid, reference compound]
% of NBT+ cells (NB4 cells [1]; 20 nM ATRA alone): 12% and 15%
% of NBT+ cells (NB4 cells [1]; 1 μM ATRA alone): 78% and 80%
% of CD11b+ cells (NB4 cells [2]; 20 nM ATRA alone): 13% and 10%
% of CD11b+ cells (NB4 cells [2]; 1 μM ATRA alone): 80% and 71.3% and 72%

C[C@H]1N=C(c2ccccc2)c2cc(C#CCCCC(=O)NO)ccc2N(C)C1=O [Compound (II) R form with R1 or R2 = Me, (R)-6-(1,3-dimethyl-2-oxo-5-phenyl-2,3-dihydro-1H-benzo[e][1,4]diazepin-7-yl)-N-hydroxyhex-5-ynamide]
Acetyl-H3 densitometric value (acetylated H3 histone; 0.5 μM): 2.5 arbitrary units
Acetyl-H3 densitometric value (acetylated H3 histone; 1 μM): 2.54 arbitrary units
Acetyl-H3 densitometric value (acetylated H3 histone; 2.5 μM): 3.69 arbitrary units
H3 histone acetylating activity, in words (acetylated H3 histone): good activity toward H3 histone
Acetyl-H4 densitometric value (acetylated H4 histone; 0.5 μM): 0 arbitrary units
Acetyl-H4 densitometric value (acetylated H4 histone; 1 μM): 0 arbitrary units
Acetyl-H4 densitometric value (acetylated H4 histone; 2.5 μM): 0 arbitrary units
H4 histone acetylating activity, in words (acetylated H4 histone): does not show hyperacetylating activity on H4 histones
% of NBT+ cells (NB4 cells [1]; 1.5 μM compound + 20 nM ATRA): 13.1%
% of NBT+ cells (NB4 cells [1]; 1.5 μM compound alone): ≦1%
effect on granulocytic differentiation / NBT positive cells, in words (NB4 cells [1]): no appreciable effect on granulocytic differentiation
% of CD11b+ cells (NB4 cells [2]; 1.5 μM compound + 20 nM ATRA): 19.8%
% of CD11b+ cells (NB4 cells [2]; 1.5 μM compound alone): 14.2%

CC1N=C(c2ccccc2)c2cc(C#CCCCC(=O)NO)ccc2N(C)C1=O (racemic) [Compound (II) racemic with R1 or R2 = Me, N-hydroxy-6-(1,3-dimethyl-2-oxo-5-phenyl-2,3-dihydro-1H-benzo[e][1,4]diazepin-7-yl)-5-hexynamide]
Acetyl-H3 densitometric value (acetylated H3 histone; 1 μM): 3.73 arbitrary units
Acetyl-H3 densitometric value (acetylated H3 histone; 2 μM): 4.61 arbitrary units
Acetyl-H3 densitometric value (acetylated H3 histone; 5 μM): 5.19 arbitrary units
Acetyl-H4 densitometric value (acetylated H4 histone; 1 μM): 1.67 arbitrary units
Acetyl-H4 densitometric value (acetylated H4 histone; 2 μM): 5.92 arbitrary units
Acetyl-H4 densitometric value (acetylated H4 histone; 5 μM): 16.29 arbitrary units
IC50 (NB4 cells [3]; Homo sapiens, NB-4): 3.4 µM
apoptotic activity, in words (NB4 cells [3]): good ability to induce apoptosis
increase of NBT positive cells, combination versus each agent alone (NB4 cells [1]; 3 μM compound + 20 nM ATRA): up to 50 fold
% of NBT+ cells (NB4 cells [1]; 3 μM compound + 20 nM ATRA): 72%
% of NBT+ cells (NB4 cells [1]; 3 μM compound alone): ≦1%
% of CD11b+ cells (NB4 cells [2]; 3 μM compound + 20 nM ATRA): 81.7%
% of CD11b+ cells (NB4 cells [2]; 3 μM compound alone): 31.2%

CN1C(=O)CN=C(c2ccccc2)c2cc(NC(=O)CCCCCCC(=O)NO)ccc21 [Compound (III) R1 and R2 = hydrogen, N1-(1-methyl-2-oxo-5-phenyl-2,3-dihydro-1H-benzo[e][1,4]diazepin-7-yl)-N8-hydroxyoctanediamide]
Acetyl-H3 densitometric value (acetylated H3 histone; 1 μM): 2.84 arbitrary units
Acetyl-H3 densitometric value (acetylated H3 histone; 2 μM): 3.23 arbitrary units
HDAC inhibitory / acetylating activity, in words (histone not specified) (acetylated H3 histone): good acetylating and apoptotic activities
Acetyl-H4 densitometric value (acetylated H4 histone; 1 μM): 2.39 arbitrary units
Acetyl-H4 densitometric value (acetylated H4 histone; 2 μM): 6.63 arbitrary units
IC50 (NB4 cells [3]; Homo sapiens, NB-4): 3 µM
apoptotic activity, in words (NB4 cells [3]): good acetylating and apoptotic activities

CC1N=C(c2ccccc2)c2cc(NC(=O)CCCCCCC(=O)NO)ccc2N(C)C1=O (racemic) [Compound (III) racemic with R1 or R2 = Me, N1-hydroxy-N8-(1,3-dimethyl-2-oxo-5-phenyl-2,3-dihydro-1H-1,4-benzo[e][1,4]diazepin-7-yl)octanediamide]
Acetyl-H3 densitometric value (acetylated H3 histone; 2 μM): 4.04 arbitrary units
Acetyl-H3 densitometric value (acetylated H3 histone; 4 μM): 4.92 arbitrary units
Acetyl-H3 densitometric value (acetylated H3 histone; 10 μM): 5.42 arbitrary units
HDAC inhibitory / acetylating activity, in words (histone not specified) (acetylated H3 histone): good inhibitory activity
Acetyl-H4 densitometric value (acetylated H4 histone; 2 μM): 12.96 arbitrary units
Acetyl-H4 densitometric value (acetylated H4 histone; 4 μM): 23.7 arbitrary units
Acetyl-H4 densitometric value (acetylated H4 histone; 10 μM): 28.15 arbitrary units
IC50 (NB4 cells [3]): 4 µM

C[C@@H]1N=C(c2ccccc2)c2cc(NC(=O)CCCCCCC(=O)NO)ccc2N(C)C1=O [Compound (III) S form with R1 or R2 = Me, (S)—N-1-(1,3-dimethyl-2-oxo-5-phenyl-2,3-dihydro-1H-benzo[e][1,4]diazepin-7-yl)-N8-hydroxyoctanediamide]
Acetyl-H3 densitometric value (acetylated H3 histone; 1 μM): 2.73 arbitrary units
Acetyl-H3 densitometric value (acetylated H3 histone; 2 μM): 2.65 arbitrary units
Acetyl-H3 densitometric value (acetylated H3 histone; 5 μM): 3.61 arbitrary units
HDAC inhibitory / acetylating activity, in words (histone not specified) (acetylated H3 histone): good inhibitory activity
Acetyl-H4 densitometric value (acetylated H4 histone; 1 μM): 3 arbitrary units
Acetyl-H4 densitometric value (acetylated H4 histone; 2 μM): 4.81 arbitrary units
Acetyl-H4 densitometric value (acetylated H4 histone; 5 μM): 12.59 arbitrary units
% of NBT+ cells (NB4 cells [1]; 3 μM compound + 20 nM ATRA): 40%
% of NBT+ cells (NB4 cells [1]; 3 μM compound alone): 3%
effect on granulocytic differentiation / NBT positive cells, in words (NB4 cells [1]): strong synergistic increase of NBT positive cells
% of CD11b+ cells (NB4 cells [2]; 3 μM compound + 20 nM ATRA): 7.4%
% of CD11b+ cells (NB4 cells [2]; 3 μM compound alone): 26%
effect on CD11b positive cells, in words (NB4 cells [2]; alone or in combination with 20 nM ATRA): no increase in CD11b positive cells

CN1C(=O)C(NC(=O)CCCCCCC(=O)NO)N=C(c2ccccc2)c2ccccc21 (racemic) [Compound (IV) racemic, N1-hydroxy-N8-(1-methyl-2-oxo-5-phenyl-2,3-dihydro-1H-benzo[e][1,4]diazepin-3-yl)octanediamide]
Acetyl-H3 densitometric value (acetylated H3 histone; 0.5 μM): 2.67 arbitrary units
Acetyl-H3 densitometric value (acetylated H3 histone; 1 μM): 3.17 arbitrary units
Acetyl-H3 densitometric value (acetylated H3 histone; 2.5 μM): 3.38 arbitrary units
H3 histone acetylating activity, in words (acetylated H3 histone): reasonably good activity toward H3 histone
Acetyl-H4 densitometric value (acetylated H4 histone; 0.5 μM): 1 arbitrary units
Acetyl-H4 densitometric value (acetylated H4 histone; 1 μM): 5.78 arbitrary units
Acetyl-H4 densitometric value (acetylated H4 histone; 2.5 μM): 10.89 arbitrary units
H4 histone acetylating activity, in words (acetylated H4 histone): good acetylating activity of H4 histone
IC50 (NB4 cells [3]; Homo sapiens, NB-4): 0.57 µM

From US8324202B2, “5-phenyl-1H-benzo [E] [1,4] diazepine compounds substituted with an hydroxamic acid group as histone deacetylase inhibitors” (Universita Degli Studi di Firenze, priority 2007, dated 2012)
